# Data reported in US20250319032A1, “PHARMACEUTICAL COMPOSITIONS OF RIBOCICLIB” (Novartis AG, priority 2024, published 2025).
# Experiments:
# [1] = DMP433 (N-nitroso-ribociclib) content in ribociclib base (B10) and ribociclib succinate (B12, drug substance) batches and process experiments, LC-MS/MS or HPLC-HRMS; type: physicochemical; settings: for DMP433 [ppm] LOQ (0.0625 ppm) / DMP433 [ppm], result in brackets (extrapolation, estimate of actual value below LOQ): ribociclib base (LEE011 B10)
# From the text: The method of testing for the presence and/or total amount of nitrosamines (such as the presence and/or total amount of N-nitroso-ribociclib in free or salt form) that is used in the methods of the invention may be any method which allows for the detection of nitrosamines in a composition. For example, the method may involve the Griess test described above. In such a method, the nitrosamines may be first denitrosated (e.g., by photolysis) to form a nitrite, which is then detected in the Griess test. Alternatively, the method may include high performance liquid chromatography (HPLC)- and/or gas chromatography (GC)-mass spectroscopy. An example of a method of testing for the presence and amount of nitrosamines (namely N-nitroso-ribociclib) is provided herein as Example 14. […]
# 2.7. […] Dissolve the substance using vortex and fill to volume with solvent (50% MeOH). • 3. Filter through 0.2 μm PVDF (polyvinylidene difluoride) or PTFE (polytetrafluoroethylene) filter into a HPLC amber vial, discard the first 0.5 ml.
# A calibration curve for DMP433 is created, using calibration standard solutions L1-L6, and expressing the relationship between responses (peak areas) and standard concentrations (ng/ml). For L1, the average of 6 injections is used. Linear regression is weighed with 1/amount. […]
# [2] = Nitrite content (ion chromatography; LC-FLD with DAN derivatisation; Griess test) in drug substance, intermediates, reagents, solvents, filters, excipients; type: physicochemical; settings: for Nitrite NAT enhanced sample prep. (ppm): ribociclib succinate drug substance batches at release
# From the text: The method of testing for the presence and/or total amount of nitrites that is used in the methods of the invention may be any method which allows for the detection and/or quantitation of nitrites in a composition. For example, the method may be the Griess test. The Griess test allows for the detection and analysis of nitrite by the formation of a red-pink colour upon treatment of a nitrite-containing sample with the Griess reagent. The Griess reagent consists of two components in an acidic solution: an aniline derivative and a coupling agent. The most common arrangements use sulfanilamide and N-(1-naphthyl)ethylenediamine. For example 0.2% N-(1-naphthyl)ethylenediamine dihydrochloride and 2% sulfanilamide in 5% phosphoric acid may be used as a Griess reagent. Other aniline derivatives that may be used in a Griess reagent include sulfanilic acid, nitroaniline, and p-aminoacetophenone.
# The Griess test involves two subsequent reactions, as shown in the scheme below. When the aniline derivative (e.g., sulfanilamide) is added, the nitrite ion reacts with it in the Griess diazotization reaction to form a diazonium salt, which then reacts with N-(1-naphthyl)ethylenediamine in an azo-coupling reaction, forming a pink-red azo-dye. Using a spectrophotometer, the nitrite concentration can then be quantitatively detected.
# Additionally purified water; e.g. Milli Q • 2.
# • 10 mM KH2PO4 Weigh accurately about 1.361 g of KH2PO4 into a 1 L volumetric flask, dissolve it in approximately 950 mL of additionally purified water and adjust the pH to 8.0 (with 2.7 M NaOH). Make up to the mark with additionally purified water. • 0.62 M HCl Add a few millilitres (e.g. 20 mL) of additionally purified water to a 200 mL volumetric flask, add 10.280 mL of concentrated HCl, mix and make up to the mark with additionally purified water. • 2.7 M NaOH Weigh accurately about 1.092 g of NaOH pellets into a 10 mL volumetric flask and dissolve it in additionally purified water. Cool to room temperature and make up to the mark with the same solvent. • Reagent DAN Weigh accurately about 5 mg of 2,3-diaminophthalene into a 100 mL volumetric flask and dissolve it with the solvent (methanol/water 1:1 (v/v)). Dilute up to the mark and ensure visual full dissolution. Use an amberglass flask. • Mobile phase A Mix 950 mL of 10 mM KH2PO4 solution (pH=8) and add 50 mL methanol. • Mobile phase B Methanol. • Solvent Methanol/water 1:1 (v/v), e.g. mix 2000 mL of additionally purified water and 2000 mL methanol.
# • Instrument: HPLC with FLR detector; e.g. Waters Arc or equivalent • Column: C18 50×4.6 mm, 2.5 μm, e.g. XBridge C18 2.5 μm, 4.650 mm or equivalent
# • Notes It is recommended to wear additional protective equipment (face mask and gloves) during weighing. • It is recommended to wash the column with 50% methanol after the analysis (example of preparation: mix 500 mL methanol and 500 m1 of additionally purified water). • It is recommended to rinse the injector with solvent after each injection. • All glassware and tools should be rinsed with additionally purified water before use. It is not recommended to leave the solutions open for a longer time before measurement. • Blank solution 1 Transfer 1 mL of solvent into a HPLC vial and perform derivatization as described below. • Blank solution 2 Transfer 10 mL of solvent into a single use glass vial and mix it on a magnetic stirrer for 30 min. Transfer the solution into a 5 mL centrifuge tube and centrifuge for 10 min at 12000 rpm. […] Fill up to the mark with solvent and mix. • (Cnitrite≈0.0005 mg/mL) • Comparison solution Transfer 10 mL of nitrite stock solution into a 500 mL volumetric flask. • (2 parallels) Fill up to the mark with solvent and mix. • Transfer 1 mL solution into a HPLC vial and perform the derivatization as described below. • (Cnitrite≈100 ppb) • Sample solution Accurately weigh about 1000 mg of the sample into a glass vial for single use and add 10 mL of solvent.
smiles,measurement,setting,value
CN(C)C(=O)c1cc2cnc(Nc3ccc(N4CCNCC4)cn3)nc2n1C1CCCC1.O=C(O)CCC(=O)O [Batch B699003AA],DMP433 content (corrected value) at release,[1]; drug substance DS06 used for tablet core experiments and binary mixtures,0.655 ppm
CN(C)C(=O)c1cc2cnc(Nc3ccc(N4CCNCC4)cn3)nc2n1C1CCCC1 [Batch B704194],DMP433 [ppm] LOQ (0.0625 ppm),[1],LOQ
same,"DMP433 [ppm], result in brackets (extrapolation, estimate of actual value below LOQ)",[1],0.005 ppm
CN(C)C(=O)c1cc2cnc(Nc3ccc(N4CCNCC4)cn3)nc2n1C1CCCC1 [Batch B704196],DMP433 [ppm] LOQ (0.0625 ppm),[1],LOQ
same,"DMP433 [ppm], result in brackets (extrapolation, estimate of actual value below LOQ)",[1],0.019 ppm
CN(C)C(=O)c1cc2cnc(Nc3ccc(N4CCNCC4)cn3)nc2n1C1CCCC1 [Batch B705465],DMP433 [ppm] LOQ (0.0625 ppm),[1],LOQ
same,"DMP433 [ppm], result in brackets (extrapolation, estimate of actual value below LOQ)",[1],0.037 ppm
CN(C)C(=O)c1cc2cnc(Nc3ccc(N4CCNCC4)cn3)nc2n1C1CCCC1 [Batch B0705466],DMP433 [ppm] LOQ (0.0625 ppm),[1],LOQ
same,"DMP433 [ppm], result in brackets (extrapolation, estimate of actual value below LOQ)",[1],0.043 ppm
CN(C)C(=O)c1cc2cnc(Nc3ccc(N4CCNCC4)cn3)nc2n1C1CCCC1 [Batch B0705467],DMP433 [ppm] LOQ (0.0625 ppm),[1],LOQ
same,"DMP433 [ppm], result in brackets (extrapolation, estimate of actual value below LOQ)",[1],0.035 ppm
CN(C)C(=O)c1cc2cnc(Nc3ccc(N4CCNCC4)cn3)nc2n1C1CCCC1.O=C(O)CCC(=O)O [Batch B0705468],DMP433 [ppm] LOQ (0.0625 ppm),[1],LOQ
same,"DMP433 [ppm], result in brackets (extrapolation, estimate of actual value below LOQ)",[1],0.030 ppm
CN(C)C(=O)c1cc2cnc(Nc3ccc(N4CCNCC4)cn3)nc2n1C1CCCC1.O=C(O)CCC(=O)O [Batch B728969],N-nitroso-ribociclib,[1]; starting material used for technical batch NV1900,0.21 ppm
CN(C)C(=O)c1cc2cnc(Nc3ccc(N4CCNCC4)cn3)nc2n1C1CCCC1.O=C(O)CCC(=O)O [DS (B699003AA)],Nitrite content,[2]; component (DS or MgST) used in binary mixtures,DS 0.1 ppm
CC(C)O [IPA],Nitrite in IPA,[2]; IPA used in resin loading experiments,1.6 ppb
CN(C)C(=O)c1cc2cnc(Nc3ccc(N4CCNCC4)cn3)nc2n1C1CCCC1.O=C(O)CCC(=O)O [LEE011-haenepa1-012],DMP433 in LEE011-B12,"[1]; washing of isolated ribociclib succinate, laboratory scale (conditions per experiment)",746 ppb
CN(C)C(=O)c1cc2cnc(Nc3ccc(N4CCNCC4)cn3)nc2n1C1CCCC1.O=C(O)CCC(=O)O [LEE011-haenepa1-013],DMP433 in LEE011-B12,[1]; re-slurry of LEE011-B12 in iPrOH at 10° C.,64 ppm
CN(C)C(=O)c1cc2cnc(Nc3ccc(N4CCNCC4)cn3)nc2n1C1CCCC1.O=C(O)CCC(=O)O [RIBOCICLIB SUCCINATE 833268A144],Nitrite NAT enhanced sample prep. (ppm),[2]; manufacturer Raybow - DS04,<0.1 ppm
same,Nitrite NAT enhanced sample prep. (ppm),[2]; manufacturer Raybow - DS05,<0.1 ppm
CN(C)C(=O)c1cc2cnc(Nc3ccc(N4CCNCC4)cn3)nc2n1C1CCCC1.O=C(O)CCC(=O)O [RIBOCICLIB SUCCINATE 833268A193],Nitrite NAT enhanced sample prep. (ppm),[2]; manufacturer Raybow - DS04,0.1 ppm
same,Nitrite NAT enhanced sample prep. (ppm),[2]; manufacturer Raybow - DS05,0.1 ppm
CN(C)C(=O)c1cc2cnc(Nc3ccc(N4CCNCC4)cn3)nc2n1C1CCCC1.O=C(O)CCC(=O)O [RIBOCICLIB SUCCINATE 833268A196],Nitrite NAT enhanced sample prep. (ppm),[2]; manufacturer Raybow - DS04,1.1 ppm
same,Nitrite NAT enhanced sample prep. (ppm),[2]; manufacturer Raybow - DS05,0.1 ppm
CN(C)C(=O)c1cc2cnc(Nc3ccc(N4CCNCC4)cn3)nc2n1C1CCCC1.O=C(O)CCC(=O)O [RIBOCICLIB SUCCINATE 833268A198],Nitrite NAT enhanced sample prep. (ppm),[2]; manufacturer Raybow - DS04,0.1 ppm
same,Nitrite NAT enhanced sample prep. (ppm),[2]; manufacturer Raybow - DS05,0.1 ppm
CN(C)C(=O)c1cc2cnc(Nc3ccc(N4CCNCC4)cn3)nc2n1C1CCCC1.O=C(O)CCC(=O)O [RIBOCICLIB SUCCINATE 833268A201],Nitrite NAT enhanced sample prep. (ppm),[2]; manufacturer Raybow - DS04,0.1 ppm
same,Nitrite NAT enhanced sample prep. (ppm),[2]; manufacturer Raybow - DS05,0.1 ppm
CN(C)C(=O)c1cc2cnc(Nc3ccc(N4CCNCC4)cn3)nc2n1C1CCCC1.O=C(O)CCC(=O)O [RIBOCICLIB SUCCINATE 833268A202],Nitrite NAT enhanced sample prep. (ppm),[2]; manufacturer Raybow - DS04,0.1 ppm
same,Nitrite NAT enhanced sample prep. (ppm),[2]; manufacturer Raybow - DS05,0.1 ppm
CN(C)C(=O)c1cc2cnc(Nc3ccc(N4CCNCC4)cn3)nc2n1C1CCCC1.O=C(O)CCC(=O)O [RIBOCICLIB SUCCINATE 833268A207],Nitrite NAT enhanced sample prep. (ppm),[2]; manufacturer Raybow - DS04,0.1 ppm
same,Nitrite NAT enhanced sample prep. (ppm),[2]; manufacturer Raybow - DS05,0.1 ppm
CN(C)C(=O)c1cc2cnc(Nc3ccc(N4CCNCC4)cn3)nc2n1C1CCCC1.O=C(O)CCC(=O)O [RIBOCICLIB SUCCINATE 833268A211],Nitrite NAT enhanced sample prep. (ppm),[2]; manufacturer Raybow - DS04,<0.1 ppm
CN(C)C(=O)c1cc2cnc(Nc3ccc(N4CCNCC4)cn3)nc2n1C1CCCC1.O=C(O)CCC(=O)O [RIBOCICLIB SUCCINATE 833268A212],Nitrite NAT enhanced sample prep. (ppm),[2]; manufacturer Raybow - DS04,<0.1 ppm
CN(C)C(=O)c1cc2cnc(Nc3ccc(N4CCNCC4)cn3)nc2n1C1CCCC1.O=C(O)CCC(=O)O [RIBOCICLIB SUCCINATE 833268R008],Nitrite NAT enhanced sample prep. (ppm),[2]; manufacturer Raybow - DS04,0.3 ppm
CN(C)C(=O)c1cc2cnc(Nc3ccc(N4CCNCC4)cn3)nc2n1C1CCCC1.O=C(O)CCC(=O)O [RIBOCICLIB SUCCINATE 833268R009],Nitrite NAT enhanced sample prep. (ppm),[2]; manufacturer Raybow - DS04,<0.1 ppm
CN(C)C(=O)c1cc2cnc(Nc3ccc(N4CCNCC4)cn3)nc2n1C1CCCC1.O=C(O)CCC(=O)O [RIBOCICLIB SUCCINATE 833268R010],Nitrite NAT enhanced sample prep. (ppm),[2]; manufacturer Raybow - DS04,<0.1 ppm
CN(C)C(=O)c1cc2cnc(Nc3ccc(N4CCNCC4)cn3)nc2n1C1CCCC1.O=C(O)CCC(=O)O [RIBOCICLIB SUCCINATE 833268R011],Nitrite NAT enhanced sample prep. (ppm),[2]; manufacturer Raybow - DS04,<0.1 ppm
CN(C)C(=O)c1cc2cnc(Nc3ccc(N4CCNCC4)cn3)nc2n1C1CCCC1.O=C(O)CCC(=O)O [RIBOCICLIB SUCCINATE 833268R012],Nitrite NAT enhanced sample prep. (ppm),[2]; manufacturer Raybow - DS04,<0.1 ppm
CN(C)C(=O)c1cc2cnc(Nc3ccc(N4CCNCC4)cn3)nc2n1C1CCCC1.O=C(O)CCC(=O)O [RIBOCICLIB SUCCINATE 833268R013],Nitrite NAT enhanced sample prep. (ppm),[2]; manufacturer Raybow - DS04,<0.1 ppm
CN(C)C(=O)c1cc2cnc(Nc3ccc(N4CCNCC4)cn3)nc2n1C1CCCC1.O=C(O)CCC(=O)O [RIBOCICLIB SUCCINATE 833268R014],Nitrite NAT enhanced sample prep. (ppm),[2]; manufacturer Raybow - DS04,<0.1 ppm
CN(C)C(=O)c1cc2cnc(Nc3ccc(N4CCNCC4)cn3)nc2n1C1CCCC1.O=C(O)CCC(=O)O [RIBOCICLIB SUCCINATE 833268R015],Nitrite NAT enhanced sample prep. (ppm),[2]; manufacturer Raybow - DS04,<0.1 ppm
CN(C)C(=O)c1cc2cnc(Nc3ccc(N4CCNCC4)cn3)nc2n1C1CCCC1.O=C(O)CCC(=O)O [RIBOCICLIB SUCCINATE 833268R016],Nitrite NAT enhanced sample prep. (ppm),[2]; manufacturer Raybow - DS04,<0.1 ppm
CN(C)C(=O)c1cc2cnc(Nc3ccc(N4CCNCC4)cn3)nc2n1C1CCCC1.O=C(O)CCC(=O)O [RIBOCICLIB SUCCINATE 834325A015],Nitrite NAT enhanced sample prep. (ppm),[2]; manufacturer Raybow - DS05,0.1 ppm
CN(C)C(=O)c1cc2cnc(Nc3ccc(N4CCNCC4)cn3)nc2n1C1CCCC1.O=C(O)CCC(=O)O [RIBOCICLIB SUCCINATE 834325A016],Nitrite NAT enhanced sample prep. (ppm),[2]; manufacturer Raybow - DS05,0.1 ppm
